Calls of active or inactive are those of the source. No cut-off for these calls is given here.
Columns and labels:
[1] = target: T1, Cholinesterase (Homo sapiens, UniProt P06276); assay: Inhibition of human recombinant BChE using butyrylthiocholine as substrate preincubated for 300 secs followed by substrate addition and measured for 1 min by Ellman's assay
[2] = Binding affinity to Cu2+ assessed as decrease in hydroxyl radical formation at 40 uM by CCA ascorbate assay
[3] = target: T1, Cholinesterase
Description: Inhibition of human BChE using butyrylthiocholine iodide as substrate preincubated for 5 mins followed by substrate addition and measured for 1 min by Ellman's assay

[4] = target: Acetylcholinesterase (AChE) (Homo sapiens, UniProt P22303); assay: in vitro; conditions: human AChE enzyme, probe acetylthiocholine iodide
Chain of Acetylcholinesterase (AChE) (P22303 whole entry): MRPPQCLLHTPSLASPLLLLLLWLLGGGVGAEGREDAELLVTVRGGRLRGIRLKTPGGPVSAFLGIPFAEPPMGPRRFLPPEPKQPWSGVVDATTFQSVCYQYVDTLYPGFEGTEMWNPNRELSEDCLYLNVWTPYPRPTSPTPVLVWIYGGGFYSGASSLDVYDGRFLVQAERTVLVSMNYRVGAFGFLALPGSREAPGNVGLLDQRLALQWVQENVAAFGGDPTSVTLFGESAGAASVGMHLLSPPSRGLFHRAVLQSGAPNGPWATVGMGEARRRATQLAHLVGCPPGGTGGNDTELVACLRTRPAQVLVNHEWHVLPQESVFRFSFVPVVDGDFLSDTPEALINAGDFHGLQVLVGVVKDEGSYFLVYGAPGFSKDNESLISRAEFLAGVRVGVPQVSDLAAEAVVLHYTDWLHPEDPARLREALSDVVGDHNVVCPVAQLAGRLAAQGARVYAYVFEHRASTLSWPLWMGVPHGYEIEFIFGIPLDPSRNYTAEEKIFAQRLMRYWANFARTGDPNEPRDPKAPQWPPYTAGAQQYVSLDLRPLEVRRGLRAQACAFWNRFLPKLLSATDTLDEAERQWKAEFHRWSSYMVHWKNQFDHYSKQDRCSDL
Description: Inhibition of human AChE using acetylthiocholine iodide as substrate assessed as residual activity at 10 uM preincubated for 5 mins followed by substrate addition and measured for 1 min by Ellman's assay relative to control

[5] = Metal chelating activity of the compound assessed as Co2+-compound complex formation at 30 uM after 5 mins by UV-vis spectrophotometric analysis
[6] = Metal chelating activity of the compound assessed as Ni2+-compound complex formation at 30 uM after 5 mins by UV-vis spectrophotometric analysis
[7] = Metal chelating activity of the compound assessed as Al3+-compound complex formation at 30 uM after 5 mins by UV-vis spectrophotometric analysis
[8] = Metal chelating activity of the compound assessed as Cu2+-compound complex formation at 30 uM after 5 mins by UV-vis spectrophotometric analysis
[9] = Metal chelating activity of the compound assessed as Zn2+-compound complex formation at 30 uM after 5 mins by UV-vis spectrophotometric analysis
[10] = Metal chelating activity of the compound assessed as Fe2+-compound complex formation at 30 uM after 5 mins by UV-vis spectrophotometric analysis
[11] = Cytotoxicity against human SH-SY5Y cells after 48 hrs by MTS assay; type: cell-based; conditions: read-out: LD50
[12] = test system: SH-SY5Y; assay: Neuroprotection activity against amyloid beta (1 to 42)-induced toxicity in human SH-SY5Y cells at 1 uM preincubated with amyloid beta (1 to 42) for 24 hrs followed by cell addition and measured after 48 hrs by MTS assay; type: functional, cell-based
[13] = test system: SH-SY5Y; assay: Inhibition of H2O2-induced ROS generation in human SH-SY5Y cells at 5 uM preincubated for 30 mins followed by H2O2 addition and measured after 90 mins by DCFH-DA staining-based fluorescence assay; type: functional, cell-based
[14] = Permeability across basolateral to apical side in human Caco2 cells at 100 uM after 20 mins by HPLC-UV analysis; type: ADME, cell-based; conditions: Caco-2
[15] = Permeability across apical to basolateral side in human Caco2 cells at 100 uM after 20 mins by HPLC-UV analysis; type: ADME, cell-based; conditions: Caco-2
[16] = Metal chelating activity of the compound assessed as Ca2+-compound complex formation at 30 uM after 5 mins by UV-vis spectrophotometric analysis
[17] = Metal chelating activity of the compound assessed as Mn2+-compound complex formation at 30 uM after 5 mins by UV-vis spectrophotometric analysis
[18] = Metal chelating activity of the compound assessed as Mg2+-compound complex formation at 30 uM after 5 mins by UV-vis spectrophotometric analysis
[19] = target: T1, Cholinesterase; assay: Competitive inhibition of human BChE using butyrylthiocholine iodide as substrate preincubated for 5 mins followed by substrate addition and measured for 1 min by Lineweaver Burk plot analysis
[20] = Efflux ratio of permeability from basolateral to apical over apical to basolateral side in human Caco2 cells at 100 uM after 20 mins by HPLC-UV analysis; type: ADME, cell-based; conditions: Caco-2
[21] = test system: human recombinant BChE; assay: Selectivity index, ratio of LD50 for human SH-SY5Y cells to IC50 for human recombinant BChE; type: toxicity; conditions: read-out: Ratio LD50/IC50

T1 sequence (P06276 whole entry): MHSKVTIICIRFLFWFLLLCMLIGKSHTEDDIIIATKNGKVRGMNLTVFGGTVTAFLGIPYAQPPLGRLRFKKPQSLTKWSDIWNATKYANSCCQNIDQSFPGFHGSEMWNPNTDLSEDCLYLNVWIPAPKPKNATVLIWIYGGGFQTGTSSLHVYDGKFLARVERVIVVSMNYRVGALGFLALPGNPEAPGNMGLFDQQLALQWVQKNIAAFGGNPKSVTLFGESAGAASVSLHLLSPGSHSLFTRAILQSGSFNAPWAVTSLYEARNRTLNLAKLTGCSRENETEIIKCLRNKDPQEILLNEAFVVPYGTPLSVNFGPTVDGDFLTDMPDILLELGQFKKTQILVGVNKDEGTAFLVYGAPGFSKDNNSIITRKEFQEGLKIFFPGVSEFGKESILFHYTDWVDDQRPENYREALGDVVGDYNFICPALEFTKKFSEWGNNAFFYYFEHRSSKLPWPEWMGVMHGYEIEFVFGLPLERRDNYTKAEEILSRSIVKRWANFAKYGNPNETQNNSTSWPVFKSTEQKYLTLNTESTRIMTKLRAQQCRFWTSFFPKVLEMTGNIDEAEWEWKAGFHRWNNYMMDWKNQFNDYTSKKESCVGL

Structure (SMILES) | IC50 [3] | activity at 1 min, 10 µM [4] | also measured
CC(=O)NC1=NN(C(C)=O)C(C)(c2ccccc2)S1 (centres undefined) |  |  | IC50 [1]: 4.9 nM
Oc1cccc2cccnc12 |  |  | Activity [2]: Active
CN(C)CCN(CC1CCCN(C2Cc3ccccc3C2)C1)C(=O)[C@@H]1N=C(c2ccccc2O)CS1 (mixture of isomers) | 229 nM | 72.9% | 
CN(C)CCN(CC1CCCN(C2Cc3ccccc3C2)C1)C(=O)c1csc(Nc2ccccn2)n1 (racemic) | 635 nM | > 80% | 
CN(C)CCN(CC1CCCN(Cc2csc(Nc3ccccn3)n2)C1)C(=O)c1ccc2ccccc2c1 (racemic) | 103 nM | > 80% | 
COCCN(CC1CCCN(C2Cc3ccccc3C2)C1)C(=O)c1ccc2cccnc2c1O (racemic) | 266 nM | > 80% | 
COc1ccc(C(=O)N(CCN(C)C)CC2CCCN(C3Cc4ccccc4C3)C2)cc1 (racemic) | 237 nM | > 80% | 
Cc1c(C)c2c(c(C)c1O)CCC(C)(C(=O)N(CCN(C)C)CC1CCCN(C3Cc4ccccc4C3)C1)O2 (racemic) | 6920 nM | > 80% | 
CN(C)CCN(CC1CCCN(C2Cc3ccccc3C2)C1)C(=O)c1cc2ccccc2oc1=O (racemic) | 9.5 nM | > 80% | 
CN(C)CCN(CC1CCCN(C2Cc3ccccc3C2)C1)C(=O)c1ccc2cccnc2c1O (racemic) |  | > 80% | Activity [5]: Active; Activity [6]: Active; Activity [7]: Active; Activity [8]: Active; Activity [9]: Active; Activity [10]: Active; CC50 at 48 h [11]: 9550 nM; Activity [12]: inactive; inhibition [13]: Active; Papp B→A at 20 min, 100 µM [14]: 22.8 ×10⁻⁶ cm/s; Papp A→B at 20 min, 100 µM [15]: 15.1 ×10⁻⁶ cm/s; Activity [16]: Active; Activity [17]: Active; Activity [18]: Active; Activity [2]: Active
CN(C)CCN(CC1CCCN(C2Cc3ccccc3C2)C1)C(=O)c1ccc2c([N+](=O)[O-])ccc(O)c2n1 (racemic) | 1610 nM | > 80% | 
CN(C)CCN(CC1CCCN(C2Cc3ccccc3C2)C1)C(=O)c1cccc(O)c1 (racemic) | 2490 nM | > 80% | 
CN(C)CCN(CC1CCCN(C2Cc3ccccc3C2)C1)C(=O)c1cn2cccc(O)c2n1 (racemic) | 135 nM | > 80% | 
CN(C)CCN(CC1CCCN(C2Cc3ccccc3C2)C1)C(=O)c1ccc(O)cc1O (racemic) | 460 nM | > 80% | 
CN(C)CCN(CC1CCCN(Cc2ccc3cccc(O)c3n2)C1)C(=O)c1ccc2ccccc2c1 (racemic) | 48.1 nM | > 80% | 
CN(C)CCN(CC1CCCN(C2Cc3ccccc3C2)C1)C(=O)/C=C/c1ccc(O)cc1 (racemic) | 71 nM | > 80% | 
CN(C)CCN(CC1CCCN(C2Cc3ccccc3C2)C1)C(=O)c1cc([N+](=O)[O-])c2cccnc2c1O (racemic) | 28 nM | > 80% | 
CN(C)CCN(CC1CCCN(C2Cc3ccccc3C2)C1)C(=O)c1cc(O)c2cccc(O)c2n1 (racemic) | 19 nM | > 80% | 
CN(C)CCN(CC1CCCN(C2Cc3ccccc3C2)C1)C(=O)c1ccc(O)nc1 (racemic) | 21000 nM | > 80% | 
CN(C)CCN(CC1CCCN(C2Cc3ccccc3C2)C1)C(=O)c1ccc2cccc(O)c2n1 (racemic) | 11.1 nM | 75.8% | Ki [19]: 1.09 nM; Activity [5]: Active; Activity [6]: Active; Activity [7]: Active; Activity [8]: Active; Activity [9]: Active; Activity [10]: Active; CC50 at 48 h [11]: 9700 nM; Activity [12]: Active; inhibition [13]: Active; Papp B→A at 20 min, 100 µM [14]: 35.1 ×10⁻⁶ cm/s; Papp A→B at 20 min, 100 µM [15]: 21.5 ×10⁻⁶ cm/s; efflux ratio at 20 min, 100 µM [20]: 1.6; Activity [2]: Active; selectivity ratio [21]: > 700
CN(C)CCN(CC1CCCN(C2Cc3ccccc3C2)C1)C(=O)c1ccc(O)cc1 (racemic) | 1790 nM | > 80% | 
